Data: PMC9289672, “Optimization of Antibacterial Activity in Tibetan Swine α-Helix Peptide TP by Site-Directed Mutagenesis” (Frontiers in Microbiology, 2022)
Where no end group is shown, it is not given here.

How the values were obtained:
E. coli 25922 [1] = test: Drug resistance assessment (continuous culture at sub-MIC); format: cell-based, Escherichia coli; conditions: E. coli 25922, serial passage at sub-MIC
Method: Continuous culture method was used to evaluate the drug resistance of peptides. Colistin was used as model antibiotic to test the resistance of E. coli 25922. First, minimum inhibitory concentration (MIC) was determined for peptide and Colistin Next, the bacteria with each sub-MIC concentration were diluted to 2 × 10^5 CFU/ml with MHB for the MIC determination of the next passage. The process was repeated 30 times.

E. coli 25922 [2] = test: In vivo efficacy assay (peritonitis-sepsis model); conditions: C57BL/6 mice, i.p. E. coli 25922; peptide 5 mg/kg i.p. at 0 and 1 h, colistin 1 mg/kg; 12 h after infection; vs infected group, p < 0.05
Method: A total of 32 female C57BL/6 mice (weighing about 20 g) aged from 6 to 8 weeks were selected. The mice in each group were divided into 4 groups by blind method (n = 8): […] (d) treatment group (E. coli 25922 + Colistin). Mice in control group were intraperitoneally injected with 100 μl normal saline, and mice in other groups were intraperitoneally injected with 100 μl (~1 × 10^8 CFU/ml) diluted bacterial solution. The peptide treatment group was intraperitoneally injected with TP(i+4) 1&2&5 (5 mg/kg) at 0 and 1 h after infection, and the control group and antibiotic treatment group were injected with normal saline and colistin (1 mg/kg), respectively. The mice were then euthanized 12 h after infection. After weighing liver, lung, spleen, and kidney, the bacterial load of each organ was determined, and the histopathological changes in the organ sections were analyzed by H&E staining. Serum levels of inflammatory factors IL-6, IL-1β, and TNF-α were detected by ELISA kits (Shanghai Jinma).

[3] = tested on: Enterococcus faecalis ATCC 29212
Text: (§1) The bacteria strains Escherichia coli ATCC 25922, Escherichia coli UB1005, Salmonella typhimurium ATCC 14028, Salmonella typhimurium C7731, Pseudomonas aeruginosa ATCC 27853, Pseudomonas aeruginosa PAO1, Staphylococcus aureus ATCC 29213, Staphylococcus aureus ATCC 25923, Methicillin-resistant Staphylococcus aureus (MRSA) 43300, Enterococcus faecalis ATCC 29212, and Staphylococcus epidermidis ATCC 12228 were obtained from the College of Veterinary Medicine, Northeast Agricultural University (Harbin, China).
(§2) The bacteria were cultured overnight in the MHB medium and transferred to the new MHB the next day until the bacteria reached the exponential growth stage. The bacteria were diluted with MHB to 2 × 10^5 CFU/ml. About 50 μl of polypeptide and equal volume of bacterial suspension was added to a 96-well plate to give the final concentration of polypeptide between 1 and 128 μm. The last two columns are negative (MHB only) and positive (bacterial and MHB) controls and incubated at 37°C for 18–24 h. Optical density was measured at an absorbance wavelength of 492 nm using a microplate reader (Tecan GENios F129004, Tecan, Austria). At least three independent measurements were taken. Each trial was conducted two times in parallel. A total of three independent assays were carried out.

[4] = tested on: Escherichia coli ATCC 25922
Text: as §1, §2

Escherichia coli UB1005 = conditions: MHB, bacteria diluted to 2 × 10^5 CFU/ml, peptide 1-128 μm, 37°C 18-24 h, OD 492 nm; three independent assays, two in parallel
Text: as §1, §2

[5] = tested on: Methicillin-resistant Staphylococcus aureus (MRSA) 43300; conditions: Methicillin-resistant 43300
Text: as §1, §2

[6] = tested on: Pseudomonas aeruginosa ATCC 27853
Text: as §1, §2

[7] = tested on: Pseudomonas aeruginosa PAO1
Text: as §1, §2

[8] = tested on: Salmonella typhimurium ATCC 14028
Text: as §1, §2

[9] = tested on: Salmonella typhimurium C7731; conditions: MHB, bacteria diluted to 2 × 10^5 CFU/ml, peptide 1-128 μm, 37°C 18-24 h, OD 492 nm; three independent assays, two in parallel
Text: as §1, §2

[10] = tested on: Staphylococcus aureus ATCC 25923
Text: as §1, §2

[11] = tested on: Staphylococcus aureus ATCC 29213
Text: as §1, §2

[12] = tested on: Staphylococcus epidermidis ATCC 12228
Text: as §1, §2

Gram-negative bacteria = test: Geometric mean of MIC and therapeutic index; format: cell-based; conditions: MHC/GM; 128 μm used when 50% hemolysis not observed at 128 μm
Method: as §2
(§3) Trp is a hydrophobic amino acid with aromatic side chains. It is a special amino acid in peptide design. Previous studies have pointed out that introducing amino acids will also bring toxicity while improving activity. […] For further evaluating the cell selectivity of the peptides, we also calculated the SI which defined as the ratio of MHC to the geometric mean (GM) (Dufourc, [2008]).

Gram-positive bacteria = test: Geometric mean of MIC and therapeutic index; format: cell-based; conditions: MHC/GM; 128 μm used when 50% hemolysis not observed at 128 μm
Method: as §2, §3

all strains in Table 2 = test: Geometric mean of MIC and therapeutic index; format: cell-based; conditions: MHC/GM; 128 μm used when 50% hemolysis not observed at 128 μm
Method: as §2
Trp is a hydrophobic amino acid with aromatic side chains. It is a special amino acid in peptide design. Previous studies have pointed out that introducing amino acids will also bring toxicity while improving activity. Therefore, at the beginning of the design, we predicted that selecting Trp as hydrophobic amino acid to substitute H-H position would bring certain toxicity to the peptide. Thus, as expected, the introduction of Trp increases the activity and toxicity of these peptides. […] Meanwhile, the virulence of TP(i+4) 1&2&5&6 and TP(i+4) 1&2&6&7 was lower than that of TP(i+4) 1&2&5&7. We infer that the location of hydrophobic centers can effectively reduce peptide toxicity by Trp substitution. For further evaluating the cell selectivity of the peptides, we also calculated the SI which defined as the ratio of MHC to the geometric mean (GM) (Dufourc, [2008]).

E. coli 25922 [13] = format: cell-based, Escherichia coli; conditions: 25922, 4 h
Method: (§4) The salt and serum stability of polypeptides were determined by improved MIC method (Lv et al., [2014]). Peptides were incubated with BSA containing different final concentrations of salt ions (150 mM NaCl, 4.5 mM KCl, 6 μm NH4Cl, 8 μm ZnCl2, 1 mM MgCl2, 2 mM CaCl2, and 4 μm FeCl3) (Wang et al., [2018]). To determine the stability of the peptide in serum, peptide was incubated with different proportions of serum (50%, 100%) at 37°C for 4 h. The following steps are the same as those for antimicrobial activity. Each trial was conducted two times in parallel. A total of three independent assays were carried out.

S. aureus 29213 = format: cell-based, Staphylococcus aureus; conditions: 29213, 4 h
Method: as §4

[14] = tested on: IPEC-J2 and HEK 293T cells
Method: (§5) The cytotoxicity of each peptide was assessed with IPEC-J12 and HEK 293T cells. […] Each trial was conducted two times in parallel. A total of three independent assays were carried out.

[15] = tested on: hRBCs (human red blood cells); test: Hemolytic activity; conditions: three independent assays, two in parallel
Method: as §5

Colistin
significantly reduced: bacterial load in organs (liver, kidney, spleen, lungs) (E. coli 25922 [2])
256 fold: increase in MIC values after 30 generations (E. coli 25922 [1]; 30 passages)
sixth generation: generation at which resistance appeared (E. coli 25922 [1])

ASVVKKLWKGVWKLLK-NH2 [TP(i+4) 1&2&5]
~ 50%: cell viability [14]
>128 µM: MHC (concentration of peptide that causes hemolysis of 50% of human red blood cells) [15]
4 µM: MIC, S. typhimurium 7731 [9] | MIC in the presence of Ca2+ (E. coli 25922 [13]) | MIC in the presence of Na+ (E. coli 25922 [13])
1 µM: MIC, E. coli 25922 [4] | MIC in the presence of Fe3+ (E. coli 25922 [13]) | MIC in the presence of Zn2+ (E. coli 25922 [13]) | MIC, Control (E. coli 25922 [13]) | MIC in the presence of K+ (S. aureus 29213) | MIC in the presence of Zn2+ (S. aureus 29213)
2 µM: MIC, E. faecalis 29212 [3] | MIC, E. coli UB1005 (Escherichia coli UB1005) | MIC, S. aureus 43300 [5] | MIC, P. aeruginosa 27853 [6] | MIC, P. aeruginosa PAO1 [7] | MIC, S. typhimurium 14028 [8] | MIC, S. aureus 25923 [10] | MIC, S. aureus 29213 [11] | MIC, S. epidermidis 12228 [12] | MIC after incubation with 100% serum (E. coli 25922 [13]) | MIC in the presence of K+ (E. coli 25922 [13]) | MIC in the presence of Mg2+ (E. coli 25922 [13]) | MIC in the presence of NH4+ (E. coli 25922 [13]) | MIC in the presence of Ca2+ (S. aureus 29213) | MIC in the presence of Fe3+ (S. aureus 29213) | MIC in the presence of Mg2+ (S. aureus 29213) | MIC in the presence of NH4+ (S. aureus 29213) | MIC in the presence of Na+ (S. aureus 29213) | MIC, Control (S. aureus 29213)
8 µM: MIC after incubation with 100% serum (S. aureus 29213)
64.00: Therapeutic index (TI), Gram-negative bacteria (Gram-negative bacteria) | Therapeutic index (TI), Gram-positive bacteria (Gram-positive bacteria) | Therapeutic index (TI) / selectivity index (SI), All (all strains in Table 2)
